The text below walks through data of patent publication US5344843A, “Cat-1 inhibitors, pharmaceutical compositions and methods of use” (Hoffman-La Roche Inc., priority 1992, dated 1994).

For assay [1], the target named is T1, CAT-1 (carnitine acyltransferase 1) (Rattus norvegicus, UniProt Q63704).
T1 construct: This preparation is used as the isolated mitochondrial preparation; from tissue; host or cells: rat heart (atria removed), isolated mitochondria
T1 sequence (Q63704 1-772): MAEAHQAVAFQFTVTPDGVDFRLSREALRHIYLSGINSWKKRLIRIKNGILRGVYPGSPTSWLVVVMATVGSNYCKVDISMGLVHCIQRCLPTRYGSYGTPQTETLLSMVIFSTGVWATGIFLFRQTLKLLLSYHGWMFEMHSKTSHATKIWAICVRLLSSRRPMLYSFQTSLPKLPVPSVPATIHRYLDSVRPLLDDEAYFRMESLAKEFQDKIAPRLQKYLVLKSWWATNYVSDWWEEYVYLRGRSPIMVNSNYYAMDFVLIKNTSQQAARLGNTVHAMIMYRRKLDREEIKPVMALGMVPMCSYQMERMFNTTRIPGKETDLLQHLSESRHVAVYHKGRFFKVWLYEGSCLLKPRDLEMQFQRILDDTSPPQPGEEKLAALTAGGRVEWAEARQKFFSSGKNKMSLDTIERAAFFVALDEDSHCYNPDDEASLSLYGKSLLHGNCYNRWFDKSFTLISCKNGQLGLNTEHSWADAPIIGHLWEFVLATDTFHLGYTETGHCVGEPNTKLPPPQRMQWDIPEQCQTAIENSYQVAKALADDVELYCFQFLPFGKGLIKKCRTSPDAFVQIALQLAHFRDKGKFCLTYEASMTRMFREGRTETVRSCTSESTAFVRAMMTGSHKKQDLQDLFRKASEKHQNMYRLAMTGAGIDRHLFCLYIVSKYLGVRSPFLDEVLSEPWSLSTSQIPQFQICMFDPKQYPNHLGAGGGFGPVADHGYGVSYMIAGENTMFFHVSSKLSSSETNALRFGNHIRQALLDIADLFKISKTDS
The assay can be described thus: Primary Screen--Inhibition of CAT-1 in isolated mitochondria. Conditions: rat heart mitochondria, reduction of palmitoyl carnitine formation by 50%; read-out: Primary Screen IC50. The assay is classed as biochemical.

Assay [2] addresses T1, CAT-1 (carnitine acyltransferase 1). In words: Secondary Screen--Inhibition of CAT-1 in intact cardiac myocytes (hypoxia-induced increase in long-chain acylcarnitines). The assay is classed as cell-based. The arrangement: inhibition: dose or concentration left out as unconfirmed. Conditions: isolated rat cardiac myocytes; for IC50: 50% inhibition of hypoxia-induced increase in long-chain acylcarnitines.
Procedure: Secondary Screen--Inhibition of CAT-1 in intact Cardiac Myocytes
(a) Preparation of Isolated Rat Cardiac Myocytes
Four hearts are excised from anesthetized rats and perfused retrogradly via the Langendorf technique. Each heart receives 100 mL of Krebs (NaCl, 118.4 mM; KCL, 4.6 mM; NaH2 PO4, 1.0 mM; NaHCO3, 20 mM; MgSO4, 2 mM; CaCl2, 50 μM; glucose, 11.0 mM), 100 mL of Ca++ free Krebs and finally 100 mL of 0.5% collagenase (Boehringer Mannhelm, type 1) in Hepes (NaCl, 115 mM; KCl, 5 mM; sucrose, 35 mM; glucose, 10 mM; Hepes, 10 mM; taurine, 4 mM; MgSO4, 2 mM; CaCl2, 50 μM). After these perfusions, the hearts are chopped into pieces, approx. 0.5 cm×0.5 cm and placed in four 125 mL plastic bottles along with 25 mL of collagenase/Hepes situated in a water bath maintained at 35° C. The pieces of cardiac tissue in each bottle are agitated by using a Harvard respirator connected to four glass syringes, which sucks the tissue up and down each tube during each respiratory cycle. After fifteen minutes, the collagenase/Hepes is removed and replaced with fresh collegenase/Hepes and the process repeated. The collegenase/Hepes from the subsequent fifteen minute harvests are centrifuged at 500 g to pellet the cells which are then resuspended in Hepes buffer. After six harvests, all cells are pelleted, resuspended in 2×26.5 mL of Hepes plus BSA (350 mg) and layered on top of 2×percoll gradients (21.15 mL percoll, 2.35 mL NaCl, 6 drops acetic acid). This is centfifuged at 3000 g for eight minutes forming a percoll gradient which results in viable cells being separated from damaged cells. The viable cells are removed, washed with Hepes and finally resuspended in 25 mL of Hepes.
The isolated cardiac myocytes (2 mL; approximately 1×10^6 cells) are separated into six glass pods. Into four of these are placed selected concentrations of the compound to be tested, and the cells are incubated for twenty minutes, after which the pods are centrifuged at 300 g for three minutes. 300 μL of normoxic Hepes is placed in one of the pods not containing compound and then all pods are placed in a hypoxic chamber (N2 atmosphere). Oxygen is fed via small bore steel tubes to the pod containing the normoxic buffer, while the other five pods receive pre-purified argon (99.998% pure). After two minutes, Hepes (pre-gassed with argon for at least twelve hours) is fed into the five hypoxic pods. This hypoxic environment (pO2 <10 mm Hg) is maintained for twenty minutes, after which the cells and pods are frozen by contact with a metal block precooled in liquid N2. The pods are then removed from the chamber and stored at -70° C. The carnitine assay is performed, as described below in (c), to determine the amount of long-chain acylcarnitine in the cells from the normoxic, hypoxic and hypoxic plus compound samples. […] Thus the IC50 in this screen is the concentration of test compound which produces a 50% inhibition of the hypoxia-induced increase in long-chain acylcarnitines.
(c) Long-chain Acylcarnitine Assay.
The frozen cell samples are thawed, mixed and homogenized with 40 μL of 70% PCA. The homogenate is transferred to eppendorf tubes while the homogenization tube and the glass pod is rinsed with 500 μL of 7% PCA, with the rinse being added to the eppendorf tube. This is then centrifuged at 1000 g for two minutes to pellet the precipitate (containing the long-chain acylcarnitine) and the supernatant is discarded. The pellet is washed twice with 500 μL of 7% PCA, the supernatants being discarded. The pellet is then hydrolyzed (to separate the acyl unit from carnitine to yield free carnitine) by the addition of 200 μL of aleionized H2 O and 50 μL of 5N KOH and incubated at 70° C. for ninety minutes.

Each structure is given as a SMILES string. Where a name gives a salt, the structure may show the parent alone.

With `O=C(O)C(=O)c1ccc(OCCCCCCc2cccc(O)c2O)cc1` [Example 260, 4-[6-(2,3-dihydroxyphenyl)hexyloxy]-alpha-oxobenzeneacetic acid], the IC50 (commonly the point on the concentration scale where inhibition reaches its midpoint) in assay [1] stood at 4000 nM. In addition, in assay [2] (hypoxia), the inhibition (usually how much of the control response was suppressed) was 94%.
Take `O=C(O)C(=O)c1ccc(OCCCc2ccc3ccccc3c2)cc1` [Example 94, 4-[[3-(2-naphthalenyl)propyl]oxy]-alpha-oxobenzeneacetic acid]: the figures for the IC50 in assay [1] and in assay [2] were 80 nM and 12000 nM, respectively.
For `O=C(O)/C(=N\O)c1ccc(OCCOc2ccc3ccccc3c2)cc1` [Example 301, (Z)-alpha-(hydroxyimino)-4-[2-(2-naphthalenyloxy)ethoxy]benzeneacetic acid], in that order: 580 nM and 2000 nM.
In the same order, the values of `O=C(O)C(F)(F)c1ccc(OCCOc2ccc3ccccc3c2)cc1` [Example 13, alpha, alpha-difluoro-4-[[2-(2-naphthalenyloxy)ethyl]oxy]benzeneacetic acid] are 1750 nM and 3800 nM.
For `O=C(O)C(=O)c1ccc(SCCOC2CCCCCCC2)cc1` [Example 173, 4-[[2-(cyclooctyloxy)ethyl]thio]-alpha-oxobenzeneacetic acid], in that order: 800 nM and 300 nM.
As to `CN(C)CCOC(=O)C(=O)c1ccc(OCCOc2ccc3ccccc3c2)cc1` [Example 106, 4-[[2-(2-naphthalenyloxy)ethyl]oxy]-alpha-oxobenzeneacetic acid 2-(dimethylamino)ethyl ester], the IC50 in assay [1] was found to be 90 nM; in assay [2], 1000 nM.
For `O=C(O)C(=O)c1ccc(OCCOc2cccc3ccccc23)cc1` [Example 84, 4-[[2-(1-naphthalenyloxy)ethyl]oxy]-alpha-oxobenzeneacetic acid], the values for the half-inhibitory concentration (IC50) in assay [1] and in assay [2] were 80 nM and 4000 nM, respectively.
As to `CCC(C)(C)C(=O)OCc1cccc(C)c1OCCSc1ccc(C(=O)C(=O)O)cc1` [Example 175, 4-[[2-[2-[(2,2-dimethyl-1-oxobutoxy)methyl]-6-methylphenoxy]ethyl]thio]-alpha-oxobenzeneacetic acid], the IC50 was found to be 500 nM in assay [1] and 200 nM in assay [2].
In the same order, the values of `CCC(C)(C)C(=O)OCc1cccc(C)c1/C=C/COc1ccc(C(=O)C(=O)O)cc1` [Example 220, (E)-4-[3-[2-[(2,2-dimethyl-1-oxobutoxy)methyl]-6-methylphenyl]-2-propenyloxy]-alpha-oxobenzeneacetic acid] are 1600 nM and 90 nM.
For `O=C(O)C(=O)c1ccc(C#CCOc2ccc3ccccc3c2)cc1` [Example 142, 4-[3-(2-naphthalenyloxy)-1-propynyl]-alpha-oxobenzeneacetic acid], in that order: 1800 nM and 20000 nM.
In the same order, the values of `O=C(O)C(=O)c1ccc(OCCCc2ccccc2)cc1` [Example 23, 4-[(3-phenylpropyl)oxy]-alpha-oxobenzeneacetic acid] are 500 nM and 37000 nM.
As to `CC(C)(C)c1ccc(C(=O)COc2ccc(C(=O)C(=O)O)cc2)cc1` [Example 286], the results for the IC50 in assay [1] and in assay [2] were 300 nM and 1200 nM, respectively.
In the same order, the values of `O=C(O)C(=O)c1ccc(OCCOc2ccc3ccccc3c2)c(Cl)c1` [Example 185, 3-chloro-4-[2-(2-naphthalenyloxy)ethoxy]-alpha-oxobenzeneacetic acid] are 80 nM and 12000 nM.
In the case of `O=C(O)C(=O)c1ccc(OC/C=C/c2ccc3ccccc3c2)cc1` [Example 96, (E)-4-[[3-(2-naphthalenyl)-2-propenyl]oxy]-alpha-oxobenzeneacetic acid], the IC50 in assay [1] was 65 nM; in assay [2] it was 7000 nM.
Regarding `O=C(O)C(=O)c1ccc(OCCOc2ccc3ccccc3c2)cc1Cl` [Example 187, 2-chloro-4-[2-(2-naphthalenyloxy)ethoxy]-alpha-oxobenzeneacetic acid], the IC50 came out at 300 nM in assay [1] and 9000 nM in assay [2].
As for `CC(C)c1cccc(-c2ccc(F)cc2)c1/C=C/COc1ccc(C(=O)C(=O)O)cc1` [Example 229, (E)-4-[3-[4'-fluoro-3-(1-methylethyl)[1,1'-biphenyl]-2-yl]-2-propenyloxy]-alpha-oxobenzeneacetic acid], the IC50 worked out at 9000 nM in assay [1] and 1000 nM in assay [2].
As for `O=C(O)C(=O)c1ccc(OCCCCOc2ccccc2)cc1` [Example 71, alpha-oxo-4-[[(4-phenoxy)butyl]oxy]benzeneacetic acid], the IC50 in assay [1] was 400 nM; in assay [2] it was 20000 nM.
For `CCC(C)(C)C(=O)OCc1cccc(C)c1/C=C\COc1ccc(C(=O)C(=O)O)cc1` [Example 215, (Z)-4-[3-[2-(2,2-dimethyl-1-oxobutoxy)methyl]-6-methylphenyl]-2-propenyloxy]-alpha-oxobenzeneacetic acid (1:1) morpholine salt], in that order: 2000 nM and 9000 nM.
For `O=C(NO)C(=O)c1ccc(OCCOc2ccc3ccccc3c2)s1` [Example 300, N-hydroxy-5-[2-(2-naphthalenyloxy)ethoxy]-alpha-oxo-2-thiopheneacetamide], in that order: 2100 nM and 5000 nM.
